The text below walks through data of patent US9914755B2, “Cyclosporin derivatives wherein the MeBmt sidechain has been cyclized” (Allergan, Inc., priority 2015, dated 2018).

SMILES strings stand for the structures. Values after ≈ are worked out from the molar mass of the structure shown. Read-outs that look alike come from different tables or passages of the source. Starred links: 1 amine or outer side, 2 acyl side, 3 side chain; linkers in the order of their positions; H or OH if unused. Non-standard residues stand in square brackets, D forms with d. Residues, ends and D or L forms follow the SMILES beside them. X2 = C[C@@H]1CC(O)O[C@H]1[C@H](C(=O)[*:2])N(C)[*:1]; NMeL = CN[C@@H](CC(C)C)C(=O)O; dNMeL = CN[C@H](CC(C)C)C(=O)O; dNMeV = CN[C@@H](C(=O)O)C(C)C; dNMeA = CN[C@H](C)C(=O)O

Data set [1] concerns the target T1, Human recombinant 6-His tagged cyclophilin D (CypD) (Homo sapiens, UniProt P30405).
T1 construct: 6-His
Briefly: Protease-free PPIase assay, cyclophilin D. It is filed as biochemical. The procedure: (§1) Protease-Free PPIase Assay The protease-free PPIase assay measures the rate of cis to trans conversion of a peptide substrate catalyzed by the enzyme cyclophilin A or D. Addition of a cyclophilin inhibitor (e.g., a test compound) slows the catalyzed rate and a Ki value is obtained. 35 mM HEPES pH 7.8, filtered through a 0.2 μm filter. 50 μM DTT was added prior to use each day and then the buffer was stored on ice. […] Human recombinant 6-His tagged cyclophilin D (CypD), prepared by the University of Edinburgh, was used to generate CypD inhibition data. Succinimide-[…]-nitroanilide (SUC-AAPF-pNA) (from Bachem AG, L-1400), 20 mg/ml prepared in 0.5 M LiCl in trifluoroethanol. All readings were taken with an Agilent 8453 Spectrophotometer which consisted of a cuvette holder, stirrer and chiller to maintain a stirred cuvette temperature of 10.0±0.1° C. The temperature was monitored by the use of temperature probe. […] The inhibitor was diluted in 100% DMSO, and then added to the assay to a maximum final concentration of 0.5% DMSO in the assay. […] The absorbance was measured at 330 nm for 300 s or 500 s for blank runs (NOTE: the substrate was added in one quick injection and the measurements started immediately to minimize mixing errors). A first order rate equation was fitted to the absorbance data, for each concentration of inhibitor, to obtain the rate constant (the first 10 to 15 seconds were excluded, as mixing causes errors in this portion of the curve). The catalytic rate was calculated from the enzymatic rate constant minus the background rate constant. An exponential curve was generated using the catalytic rate constants versus the inhibitor concentration to obtain the Ki value for the inhibitor. The Ki value is indicative of the binding affinity between the test compound and cyclophilin A.

Data set [2] has as its target T2, Human recombinant cyclophilin A (CypA) (Homo sapiens, UniProt P62937).
T2 construct: purchased Sigma C3805
Briefly: Protease-free PPIase assay, cyclophilin A. It is filed as biochemical. The procedure:
as §1

Data set [3] is described as follows: Water Solubility Assay (onset of precipitation in buffer). The settings on record: 25 °C, pH 7.4, aqueous buffer, kinetic from dmso stock.
Protocol: (§2) The aqueous solubility of a compound of Formula I in buffer (pH 7.8) was measured by recording the onset of precipitation of the compound as a function of increasing concentration. The onset of precipitation, if it occurred, was detected by an increase in absorbance at 650 nm.
(§3) Stock solutions of Control and Test Compounds: 10 mM in 100% DMSO.
(§4) 10 mM stock solutions of control and test compounds were prepared in 100% DMSO.
(§5) Assay buffer (247.5 μl) was placed into a flat bottomed transparent 96-well plate. For blank samples, DMSO (2.5 μl) was added. For test and control samples, 2.5 μl of the appropriate DMSO dilution stocks were added to the appropriate well. All test and control compounds were performed in triplicate.
(§6) The plates were sealed with adhesive plate seal and shaken at 250 rpm at 25° C. for 18 h on a plate shaker. After incubation, the plate seals were taken off and any bubbles observed in wells removed. The plates were read on a SpectraMaxM5 with a 5 s pre-shake at 650 nm.
(§7) Data files were transferred to the appropriate worksheet and the solubility range of the compounds was calculated from the data.
Another data set concerns the target T3, calcineurin (Homo sapiens, UniProt P62937+P63098+Q08209).
T3 construct: purchased Enzo Life Sciences BML-AK804
Briefly: Calcineurin Phosphatase (CaN) Assay. The settings on record: in the presence of CypA, 1:1 complex of inhibitor with CypA. Type of data set: biochemical. An excerpt:
Calcineurin Phosphatase (CaN) Assay
The calcineurin phosphatase assay is a means for estimating the immunosuppressive potential of a test compound. Calcineurin is a serine-threonine protein phosphatase that on activation dephosphorylates members of the nuclear factor of activated T cells (NFAT), which are important in T lymphocyte activation.
To investigate the immunosuppressive potential of exemplary compounds of Formula I, which are cyclosporin analogs, their ability to inhibit calcineurin activity was measured in the presence and absence of CypA.
The CaN assay kit used is based on a colorimetric assay for measuring calcineurin phosphatase activity, and it is commercially available (Enzo Life Sciences and Calbiochem). Calmodulin is also required for calcineurin activity, and RII phosphopeptide is used as an efficient peptide substrate for calcineurin. […] The detection of free phosphate released is based on the classic Malachite green assay.
Enzo Life Sciences CaN Assay Kit: BML-AK804
For samples ‘without CypA’, a 4-point dilution series of the inhibitor was prepared in duplicate to obtain a final assay concentration of 10, 1, 0.1 and 0.01 μM. For samples ‘with CypA’, a 7-point dilution series was prepared to obtain a 1:1 complex of the inhibitor with CypA; the inhibitor and CypA final assay concentrations of 10, 3.33, 1.11, 0.37, 0.12, 0.04, 0.014 μM were prepared.
using the half area 96 well plates supplied with the kit, 10 μl UPW was added to duplicate wells to provide the non-inhibited control. 10 μl of the inhibitor or the inhibitor/CypA complex was added to the appropriate sample wells. 25 μl of the 2× assay buffer with calmodulin (CaM) was added to all wells, then 5 μl of calcineurin phosphatase (CaN) was added to all wells (40 U per well final concentration) except duplicate ‘no calcineurin blank’ wells to which 5 μL 1× assay buffer was added. The assay plate was placed in an oven at 30° C. for 15 minutes to equilibrate to the reaction temperature. The reaction was started by the addition of 10 μl RII-peptide (0.15 mM final concentration). The reaction was allowed to proceed at 30° C. for a time period in which the reaction is linear for about 60 minutes. The reaction was then terminated by adding 100 μl of the Malachite Green reagent. The color was allowed to develop for 15-30 minutes at room temperature before the absorbance at 620 nm was measured using a plate reader (Molecular Devices—SpectraMax M5). The data were analyzed by subtracting ‘no calcineurin blank’ from all the absorbance readings and plotting the background corrected absorbances against Log10 inhibitor concentration. A sigmoidal-dose response curve was fitted to the data using GraphPad Prism Software.
It exerts its immunosuppressive activity by binding to CypA to form a complex, which then binds to calcineurin and thereby inhibits calcineurin activity.

Another data set can be described thus: physchem. The settings on record: 25 °C, pH 7.4, aqueous buffer, kinetic from dmso stock.
The mark [4] stands for this setting: human recombinant 6-His CypD, 10 °C, SUC-AAPF-pNA substrate, read-out: CypD Protease-free PPIase Assay Ki.
Where [5] appears, read: human recombinant CypA, 10 °C, SUC-AAPF-pNA substrate, read-out: CypA Protease-free PPIase Assay Ki.

T1 sequence (P30405 30-207): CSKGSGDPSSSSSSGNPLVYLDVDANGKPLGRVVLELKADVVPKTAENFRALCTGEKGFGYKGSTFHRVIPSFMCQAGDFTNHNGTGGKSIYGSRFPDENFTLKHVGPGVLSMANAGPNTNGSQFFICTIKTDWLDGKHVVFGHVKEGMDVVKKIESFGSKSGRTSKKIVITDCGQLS
T2 sequence (P62937 whole entry): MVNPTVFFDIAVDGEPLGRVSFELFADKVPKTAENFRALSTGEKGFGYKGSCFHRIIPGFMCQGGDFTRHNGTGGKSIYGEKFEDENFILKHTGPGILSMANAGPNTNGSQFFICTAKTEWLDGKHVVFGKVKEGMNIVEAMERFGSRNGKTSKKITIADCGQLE
Protocol for physchem: as §2, §3, §4, §5, §6, §7

Take `CC(C)C[C@@H]1C(=O)N(C)[C@H](CC(C)C)C(=O)N(C)[C@H](C(C)C)C(=O)N(C)[C@H]([C@@H]2OCC[C@H]2C)C(=O)N[C@H](C)C(=O)N(C)CC(=O)N(C)[C@@H](CC(C)C)C(=O)N[C@H](C(C)C)C(=O)N(C)[C@H](CC(C)C)C(=O)N[C@H](C)C(=O)N[C@@H](C)C(=O)N1C` [Compound 9, [(2S)-2-(methylamino)-2-[(2R,3R)-3-methyltetrahydrofuran-2-yl]acetic acid]^1 cyclosporin B]: the results for the Ki in data set [1] and in data set [2] were 0.2 µM and 8.6 µM, respectively. For the same compound, the solubility at 18 h in data set [3] was more than 100 µM.

As for `CC(C)C[C@@H]1C(=O)N(C)[C@H](CC(C)C)C(=O)N(C)[C@H](C(C)C)C(=O)N(C)[C@H]([C@@H]2OCC[C@H]2C)C(=O)N[C@H](C(C)C)C(=O)N(C)CC(=O)N(C)[C@@H](CC(C)C)C(=O)N[C@H](C(C)C)C(=O)N(C)[C@H](CC(C)C)C(=O)N[C@H](C)C(=O)N[C@@H](C)C(=O)N1C` [Compound 7, [(2S)-2-(methylamino)-2-[(2R,3R)-3-methyltetrahydrofuran-2-yl]acetic acid]^1 cyclosporin D], the Ki is 0.081 µM in data set [1] (setting [4]) and 0.4 µM in data set [2] (setting [5]). The IC50 on calcineurin is more than 10 µM. The compound further showed a solubility at 18 h in “physchem” of 75 µM (≈ 89.1 µg/mL).

Consider `CC[C@H]1NC(=O)[C@@H]([C@@H]2OC(=O)N(C)C[C@H]2C)N(C)C(=O)[C@@H](C(C)C)N(C)C(=O)[C@@H](CC(C)C)N(C)C(=O)[C@@H](CC(C)C)N(C)C(=O)[C@H](C)NC(=O)[C@@H](C)NC(=O)[C@@H](CC(C)C)N(C)C(=O)[C@@H](C(C)C)NC(=O)[C@H](CC(C)C)N(C)C(=O)[C@@H](C)N(C)C1=O` [Compound 22], for which the Ki in data set [1] (setting [4]) was 0.16 µM; in data set [2] (setting [5]) it was 0.315 µM. For the same compound, the IC50 on calcineurin is more than 10 µM. The same compound displayed a solubility at 18 h in “physchem” of more than 100 µM.

As to `CC(C)C[C@@H]1C(=O)N(C)[C@H](CC(C)C)C(=O)N(C)[C@H](C(C)C)C(=O)N(C)[C@H]([C@@H]2OC(O)C[C@H]2C)C(=O)N[C@H](C(C)C)C(=O)N(C)[C@H](C)C(=O)N(C)[C@@H](CC(C)C)C(=O)N[C@H](C(C)C)C(=O)N(C)[C@H](CC(C)C)C(=O)N[C@H](C)C(=O)N[C@@H](C)C(=O)N1C` (stereo partly drawn) [Compound 14, [(2S)-2-[(2R,3R)-5-Hydroxy-3-methyl-tetrahydrofuran-2-yl]-2-(methylamino)acetic acid]^1 [(R)-methyl-Sar]^3 cyclosporin D] (cyclo(A[dNMeL][dNMeL][dNMeV][X2][dV][dNMeA][NMeL][dV][dNMeL][dA])), the values for the Ki in data set [1] (setting [4]) and in data set [2] (setting [5]) were 0.0084 µM and 0.0204 µM, respectively. The IC50 on calcineurin was more than 10 µM. This compound yielded a solubility at 18 h in the data set “physchem” of more than 100 µM.

Turning to `CC[C@H]1NC(=O)[C@@H]([C@@H]2OCC[C@H]2C)N(C)C(=O)[C@@H](C(C)C)N(C)C(=O)[C@@H](CC(C)C)N(C)C(=O)[C@@H](CC(C)C)N(C)C(=O)[C@H](C)NC(=O)[C@@H](C)NC(=O)[C@@H](CC(C)C)N(C)C(=O)[C@@H](C(C)C)NC(=O)[C@H](CC(C)C)N(C)C(=O)[C@@H](C)N(C)C1=O` [Compound 3, [(2S)-2-(methylamino)-2-[(2R,3R)-3-methyltetrahydrofuran-2-yl]acetic acid]^1 [(R)-methyl-Sar]^3 cyclosporin A], the Ki in data set [1] (setting [4]) stood at 0.0044 µM; in data set [2] (setting [5]), 0.095 µM. In addition, on calcineurin, the IC50 is more than 10 µM. For the same compound, in the data set “physchem”, the solubility at 18 h is more than 100 µM.
